From US11388902B2, “Pesticidally active cyclopropyl methyl amide derivatives” (SYNGENTA PARTICIPATIONS AG, priority 2017, dated 2022)

What was measured:
Format in all cases: in vivo
[1] = tested on: Diabrotica balteata (Corn Root Worm); assay: Diabrotica balteata (corn root worm) on sprayed maize sprouts; settings: 96 h, application rate of 200 ppm, L2 larvae, 4 days after infestation, in comparison to untreated samples, read-out: effect in at least one of the two categories (mortality or growth inhibition)
Experimental: Example B1: Diabrotica balteata (Corn Root Worm)
Maize sprouts placed onto an agar layer in 24-well microtiter plates were treated with aqueous test solutions prepared from 10′000 ppm DMSO stock solutions by spraying. After drying, the plates were infested with L2 larvae (6 to 10 per well). The samples were assessed for mortality and growth inhibition in comparison to untreated samples 4 days after infestation.

[2] = tested on: Plutella xylostella (Diamond Back Moth); assay: Plutella xylostella (diamond back moth) artificial diet test; settings: 120 h, application rate of 200 ppm, L2 larvae, 5 days after infestation, in comparison to untreated samples, read-out: effect in at least one of the two categories (mortality or growth inhibition)
Experimental: Example B3: Plutella xylostella (Diamond Back Moth)
24-well microtiter plates with artificial diet were treated with aqueous test solutions prepared from 10′000 ppm DMSO stock solutions by pipetting. After drying, the plates were infested with L2 larvae (10 to 15 per well). The samples were assessed for mortality and growth inhibition in comparison to untreated samples 5 days after infestation.

[3] = tested on: Thrips tabaci (Onion Thrips); assay: Thrips tabaci (onion thrips) feeding/contact activity, sunflower leaf discs; settings: foliar, 144 h, application rate of 200 ppm, thrips population of mixed ages, 6 days after infestation
Experimental: Example B6: Thrips tabaci (Onion Thrips) Feeding/Contact Activity
(§1) Sunflower leaf discs were placed on agar in 24-well microtiter plates and sprayed with aqueous test solutions prepared from 10′000 ppm DMSO stock solutions. After drying the leaf discs were infested with a thrips population of mixed ages. The samples were assessed for mortality 6 days after infestation.

[4] = tested on: Myzus persicae (Green Peach Aphid); assay: Myzus persicae (green peach aphid) sucrose solution feeding test; settings: 120 h, test rate of 12 ppm, 5 days after infestation
Description: Example B2: Myzus persicae (Green Peach Aphid)
Test compounds prepared from 10′000 ppm DMSO stock solutions were applied by pipette into 24-well microtiter plates and mixed with sucrose solution. The plates were closed with a stretched Parafilm. A plastic stencil with 24 holes was placed onto the plate and infested pea seedlings were placed directly on the Parafilm. The infested plate was closed with a gel blotting paper and another plastic stencil and then turned upside down. The samples were assessed for mortality 5 days after infestation.

[5] = tested on: Spodoptera littoralis (Egyptian Cotton Leaf Worm); assay: Spodoptera littoralis (Egyptian cotton leaf worm) cotton leaf disc test; settings: foliar, 72 h, application rate of 200 ppm, L1 larvae, 3 days after infestation, in comparison to untreated samples, read-out: control (mortality, anti-feeding effect, or growth inhibition)
Experimental: Example B4: Spodoptera littoralis (Egyptian Cotton Leaf Worm)
Cotton leaf discs were placed onto agar in 24-well microtiter plates and sprayed with aqueous test solutions prepared from 10′000 ppm DMSO stock solutions. After drying the leaf discs were infested with five L1 larvae. The samples were assessed for mortality, anti-feeding effect, and growth inhibition in comparison to untreated samples 3 days after infestation. Control of Spodoptera littoralis by a test sample is given when at least one of the categories mortality, anti-feedant effect, and growth inhibition is higher than the untreated sample.

[6] = tested on: Tetranychus urticae (Two-Spotted Spider Mite); assay: Tetranychus urticae (two-spotted spider mite) feeding/contact activity, bean leaf discs; settings: foliar, 192 h, application rate of 200 ppm, 8 days after infestation, read-out: mortality on mixed population (mobile stages)
Experimental: Example B5: Tetranychus urticae (Two-Spotted Spider Mite):Feeding/Contact Activity
as §1, with “Bean” for “Sunflower”, “discs” for “discs were placed”, “were” for “and”, “mite” for “thrips”, “on mixed population (mobile stages) 8” for “6”

N#CC1(CNC(=O)c2ccc(C3=NOC(c4cc(Cl)cc(Cl)c4)(C(F)(F)F)C3)cn2)CC1 (racemic) [Compound D01, N-[(1-cyanocyclopropyl)methyl]-5-[5-(3,5-dichlorophenyl)-5-(trifluoromethyl)-4H-isoxazol-3-yl]pyridine-2-carboxamide]
≥ 80%: percent effect (mortality or growth inhibition) at 200 ppm [1] | percent effect (mortality or growth inhibition) at 200 ppm [2] | mortality at 200 ppm [3]

Cc1cc(C2=NOC(c3cc(Cl)cc(Cl)c3)(C(F)(F)F)C2)ncc1C(=O)NCC1(C#N)CC1 (racemic) [Compound D02, N-[(1-cyanocyclopropyl)methyl]-6-[5-(3,5-dichlorophenyl)-5-(trifluoromethyl)-4H-isoxazol-3-yl]-4-methyl-pyridine-3-carboxamide]
≥ 80%: percent effect (mortality or growth inhibition) at 200 ppm [1] | mortality at 12 ppm [4] | percent effect (mortality or growth inhibition) at 200 ppm [2] | percent control (mortality, anti-feedant effect or growth inhibition) at 200 ppm [5] | mortality at 200 ppm [6] | mortality at 200 ppm [3]

Cc1cc(C2=NO[C@@](c3cc(Cl)c(F)c(Cl)c3)(C(F)(F)F)C2)ccc1C(=O)NCC1(C#N)CC1 [Compound A01, N-[(1-cyanocyclopropyl)methyl]-4-[(5S)-5-(3,5-dichloro-4-fluoro-phenyl)-5-(trifluoromethyl)-4H-isoxazol-3-yl]-2-methyl-benzamide]
≥ 80%: percent effect (mortality or growth inhibition) at 200 ppm [1] | mortality at 12 ppm [4] | percent effect (mortality or growth inhibition) at 200 ppm [2] | percent control (mortality, anti-feedant effect or growth inhibition) at 200 ppm [5] | mortality at 200 ppm [6] | mortality at 200 ppm [3]

Cc1cc(C2=NO[C@@](c3cc(Cl)c(F)c(Cl)c3)(C(F)(F)F)C2)ccc1C(=O)NCC1(C(N)=S)CC1 [Compound B01, N-[(1-carbamothioylcyclopropyl)methyl]-4-[(5S)-5-(3,5-dichloro-4-fluoro-phenyl)-5-(trifluoromethyl)-4H-isoxazol-3-yl]-2-methyl-benzamide]
≥ 80%: percent effect (mortality or growth inhibition) at 200 ppm [1] | mortality at 12 ppm [4] | percent effect (mortality or growth inhibition) at 200 ppm [2] | percent control (mortality, anti-feedant effect or growth inhibition) at 200 ppm [5] | mortality at 200 ppm [6] | mortality at 200 ppm [3]

Cc1cc(C2=NO[C@@](c3cc(Cl)c(F)c(Cl)c3)(C(F)(F)F)C2)ccc1C(=O)NCC1(C(N)=O)CC1 [Compound C01, N-[(1-carbamoylcyclopropyl)methyl]-4-[(5S)-5-(3,5-dichloro-4-fluoro-phenyl)-5-(trifluoromethyl)-4H-isoxazol-3-yl]-2-methyl-benzamide]
≥ 80%: percent effect (mortality or growth inhibition) at 200 ppm [1] | mortality at 12 ppm [4] | percent effect (mortality or growth inhibition) at 200 ppm [2] | percent control (mortality, anti-feedant effect or growth inhibition) at 200 ppm [5] | mortality at 200 ppm [6] | mortality at 200 ppm [3]

Cc1cc(C2=NO[C@@](c3cc(Cl)c(F)c(Cl)c3)(C(F)(F)F)C2)ccc1C(=O)NC(C)C1(C#N)CC1 (stereo partly drawn) [Compound E01, N-[1-(1-cyanocyclopropyl)ethyl]-4-[(5S)-5-(3,5-dichloro-4-fluoro-phenyl)-5-(trifluoromethyl)-4H-isoxazol-3-yl]-2-methyl-benzamide]
≥ 80%: percent effect (mortality or growth inhibition) at 200 ppm [2] | percent control (mortality, anti-feedant effect or growth inhibition) at 200 ppm [5] | mortality at 200 ppm [3]

CCOC(=O)N(CC1(C#N)CC1)C(=O)c1ccc(C2=NO[C@@](c3cc(Cl)c(F)c(Cl)c3)(C(F)(F)F)C2)cc1C [Compound F01, ethyl N-[(1-cyanocyclopropyl)methyl]-N-[4-[(5S)-5-(3,5-dichloro-4-fluoro-phenyl)-5-(trifluoromethyl)-4H-isoxazol-3-yl]-2-methyl-benzoyl]carbamate]
≥ 80%: percent effect (mortality or growth inhibition) at 200 ppm [1] | percent effect (mortality or growth inhibition) at 200 ppm [2] | percent control (mortality, anti-feedant effect or growth inhibition) at 200 ppm [5] | mortality at 200 ppm [6] | mortality at 200 ppm [3]
